We go through ten compounds from patent publication US10618901B2 (GlaxoSmithKline Intellectual Property Development Limited, priority 2014, dated 2020).

This assay deals with T1, LRRK2 Ser935 phosphorylation in SH-SY5Y cells over-expressing recombinant full length LRRK2 (Homo sapiens, UniProt Q5S007).
T1 construct: A BacMam virus expressing full length recombinant LRRK2 was purchased from Invitrogen; host or cells: SH-SY5Y (BacMam transduction)
Nature of the assay: Recombinant cellular LRRK2 AlphaScreen assay. In kind it is cell-based. Summed up: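 SH-SY5Y cells transduced with BacMam full-length LRRK2 (MOI 50, 24 h) were treated with compound, top final 10 uM, for 60 min at 37° C. Lysates were assayed by AlphaScreen for pSer935 and total LRRK2. Dose-response fitted to a sigmoidal model.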
In general terms: Alpha assays give light when donor and acceptor beads are brought close together.

The mark [1] stands for this setting: read-out: pIC50 in the recombinant cellular LRRK2 alphaScreen assay (converted).

Like-named read-outs stand apart in the source and are kept apart here.

T1 sequence (Q5S007 whole entry): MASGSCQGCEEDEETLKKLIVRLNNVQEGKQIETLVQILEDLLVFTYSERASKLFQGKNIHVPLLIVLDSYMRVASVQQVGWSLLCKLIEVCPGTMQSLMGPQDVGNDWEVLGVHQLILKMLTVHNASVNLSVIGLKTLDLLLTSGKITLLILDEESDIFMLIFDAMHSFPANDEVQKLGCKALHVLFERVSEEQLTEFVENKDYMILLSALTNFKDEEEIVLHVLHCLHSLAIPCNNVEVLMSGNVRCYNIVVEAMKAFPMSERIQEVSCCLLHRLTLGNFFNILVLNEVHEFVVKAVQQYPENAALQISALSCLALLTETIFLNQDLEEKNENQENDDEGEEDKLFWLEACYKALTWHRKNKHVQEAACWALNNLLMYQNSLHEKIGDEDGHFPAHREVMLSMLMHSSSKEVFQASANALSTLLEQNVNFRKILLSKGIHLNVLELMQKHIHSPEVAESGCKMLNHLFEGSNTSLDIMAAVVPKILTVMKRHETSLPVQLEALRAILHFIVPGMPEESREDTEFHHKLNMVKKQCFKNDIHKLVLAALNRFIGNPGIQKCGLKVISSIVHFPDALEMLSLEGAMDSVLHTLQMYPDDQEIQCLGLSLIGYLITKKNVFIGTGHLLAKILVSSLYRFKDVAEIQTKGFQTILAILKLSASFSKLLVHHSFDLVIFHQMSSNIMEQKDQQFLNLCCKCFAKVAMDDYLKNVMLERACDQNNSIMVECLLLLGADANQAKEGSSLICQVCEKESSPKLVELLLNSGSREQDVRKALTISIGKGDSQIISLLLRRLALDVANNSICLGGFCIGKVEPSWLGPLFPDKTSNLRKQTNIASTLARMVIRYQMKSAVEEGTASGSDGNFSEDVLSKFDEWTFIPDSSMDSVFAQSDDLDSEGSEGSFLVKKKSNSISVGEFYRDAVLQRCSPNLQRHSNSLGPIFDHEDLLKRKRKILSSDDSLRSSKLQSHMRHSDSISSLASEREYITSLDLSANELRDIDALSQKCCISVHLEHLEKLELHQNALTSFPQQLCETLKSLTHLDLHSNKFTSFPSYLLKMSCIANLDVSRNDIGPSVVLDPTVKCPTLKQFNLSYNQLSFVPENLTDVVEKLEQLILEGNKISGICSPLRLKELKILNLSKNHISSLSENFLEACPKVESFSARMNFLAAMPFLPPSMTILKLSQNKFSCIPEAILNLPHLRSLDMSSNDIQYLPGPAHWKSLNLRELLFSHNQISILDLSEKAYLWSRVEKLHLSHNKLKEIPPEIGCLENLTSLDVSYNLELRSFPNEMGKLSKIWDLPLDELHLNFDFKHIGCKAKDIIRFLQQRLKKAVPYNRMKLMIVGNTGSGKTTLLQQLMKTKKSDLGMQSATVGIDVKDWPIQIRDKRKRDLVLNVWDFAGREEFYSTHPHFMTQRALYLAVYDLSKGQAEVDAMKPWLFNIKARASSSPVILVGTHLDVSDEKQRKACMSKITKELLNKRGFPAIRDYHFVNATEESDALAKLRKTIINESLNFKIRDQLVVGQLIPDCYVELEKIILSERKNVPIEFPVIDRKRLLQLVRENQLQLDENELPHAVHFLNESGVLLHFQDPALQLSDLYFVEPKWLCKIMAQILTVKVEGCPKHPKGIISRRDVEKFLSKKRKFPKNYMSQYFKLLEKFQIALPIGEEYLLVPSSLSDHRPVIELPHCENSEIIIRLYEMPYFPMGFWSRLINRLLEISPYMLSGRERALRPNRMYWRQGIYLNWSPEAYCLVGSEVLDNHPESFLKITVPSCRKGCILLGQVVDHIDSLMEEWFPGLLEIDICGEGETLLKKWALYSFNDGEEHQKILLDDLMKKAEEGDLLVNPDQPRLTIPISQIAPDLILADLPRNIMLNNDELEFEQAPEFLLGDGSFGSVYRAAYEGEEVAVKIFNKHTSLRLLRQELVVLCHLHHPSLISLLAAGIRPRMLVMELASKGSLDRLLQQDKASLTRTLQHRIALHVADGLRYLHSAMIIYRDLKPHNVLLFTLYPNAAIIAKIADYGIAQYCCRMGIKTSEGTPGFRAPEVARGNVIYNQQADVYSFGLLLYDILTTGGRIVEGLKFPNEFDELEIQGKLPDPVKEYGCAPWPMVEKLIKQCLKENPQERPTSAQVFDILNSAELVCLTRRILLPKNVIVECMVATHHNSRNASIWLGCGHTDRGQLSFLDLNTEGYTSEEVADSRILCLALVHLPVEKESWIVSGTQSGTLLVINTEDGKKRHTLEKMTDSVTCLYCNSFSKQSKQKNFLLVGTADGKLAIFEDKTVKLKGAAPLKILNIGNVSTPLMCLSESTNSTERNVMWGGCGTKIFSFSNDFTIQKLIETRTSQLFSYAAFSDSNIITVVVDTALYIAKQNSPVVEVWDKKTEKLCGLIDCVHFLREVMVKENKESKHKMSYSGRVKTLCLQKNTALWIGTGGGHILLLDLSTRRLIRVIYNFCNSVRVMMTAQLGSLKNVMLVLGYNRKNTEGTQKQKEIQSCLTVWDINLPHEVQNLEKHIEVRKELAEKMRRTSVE

For the compound `CCOc1nc(Nc2cnn(C(C)(C)C#N)c2C)nc2[nH]ccc12` [Example E96, 2-(4-((4-ethoxy-7H-pyrrolo[2,3-d]pyrimidin-2-yl)amino)-5-methyl-1H-pyrazol-1-yl)-2-methylpropanenitrile], the IC50 under setting [1] was at most 100 nM.

Turning to `CCOc1nc(Nc2cnn([C@H]3CCN(C4COC4)C[C@@H]3F)c2C)nc2[nH]ccc12` [Example E97, 4-ethoxy-N-(1-((3S,4S)-3-fluoro-1-(oxetan-3-yl)piperidin-4-yl)-5-methyl-1H-pyrazol-4-yl)-7H-pyrrolo[2,3-d]pyrimidin-2-amine], the IC50 under setting [1] is at most 100 nM.

With `CCOc1nc(Nc2cnn([C@@H]3CCN(C4COC4)C[C@H]3F)c2C)nc2[nH]ccc12` [Example E98, 4-ethoxy-N-(1-((3R,4R)-3-fluoro-1-(oxetan-3-yl)piperidin-4-yl)-5-methyl-1H-pyrazol-4-yl)-7H-pyrrolo[2,3-d]pyrimidin-2-amine], the IC50 under setting [1] was at most 100 nM.

On to `CCOc1nc(Nc2cnn(CCN3CCO[C@@H](C(F)F)C3)c2C)nc2[nH]ccc12` [Example E99, (R)—N-(1-(2-(2-(difluoromethyl)morpholino)ethyl)-5-methyl-1H-pyrazol-4-yl)-4-ethoxy-7H-pyrrolo[2,3-d]pyrimidin-2-amine], for which the IC50 under setting [1] was at most 100 nM.

On to `CCOc1nc(Nc2cnn([C@@H]3CCCN(C4COC4)C3)c2C)nc2[nH]ccc12` [Example E135, (R)-4-ethoxy-N-(5-methyl-1-(1-(oxetan-3-yl)piperidin-3-yl)-1H-pyrazol-4-yl)-7H-pyrrolo [2,3-d]pyrimidin-2-amine], for which, under setting [1], the IC50 is at most 100 nM.

Turning to `CCOc1nc(Nc2cnn([C@H]3CCCN(C4COC4)C3)c2C)nc2[nH]ccc12` [Example E136, (S)-4-ethoxy-N-(5-methyl-1-(1-(oxetan-3-yl)piperidin-3-yl)-1H-pyrazol-4-yl)-7H-pyrrolo[2,3-d]pyrimidin-2-amine], the IC50 under setting [1] is at most 100 nM.

Take `CCOc1nc(Nc2cnn(C3(C)CC(N4CCOCC4)C3)c2C)nc2[nH]ccc12` (centres unmarked) [Example E137, 4-ethoxy-N-(5-methyl-1-(1-methyl-3-morpholinocyclobutyl)-1H-pyrazol-4-yl)-7H-pyrrolo[2,3-d]pyrimidin-2-amine]: the IC50 under setting [1] was at most 100 nM.

On to `CCOc1nc(Nc2cnn(C3CCC(N4CCOCC4)CC3)c2Cl)nc2[nH]ccc12` (centres unmarked) [Example E149, N-(5-chloro-1-(4-morpholinocyclohexyl)-1H-pyrazol-4-yl)-4-ethoxy-7H-pyrrolo[2,3-d] pyrimidin-2-amine], for which the IC50 under setting [1] is at most 100 nM.

`CCOc1nc(Nc2cnn([C@H]3C[C@H](F)CN(C4COC4)C3)c2Cl)nc2[nH]ccc12` [Example E150, N-(5-chloro-1-((3S,5S)-5-fluoro-1-(oxetan-3-yl)piperidin-3-yl)-1H-pyrazol-4-yl)-4-ethoxy-7H-pyrrolo[2,3-d]pyrimidin-2-amine]: the IC50 by setting is: (LRRK2 Ser935 phosphorylation, 60 minutes, read-out: recombinant cellcular LRRK2 alphaScreen assay (pIC50) (converted)) 31.6 nM; under setting [1], at most 100 nM.

As for `CCOc1nc(Nc2cnn([C@@H]3C[C@H](F)CN(C4COC4)C3)c2Cl)nc2[nH]ccc12` [Example E151, N-(5-chloro-1-((3R,5S)-5-fluoro-1-(oxetan-3-yl)piperidin-3-yl)-1H-pyrazol-4-yl)-4-ethoxy-7H-pyrrolo[2,3-d]pyrimidin-2-amine], the IC50 under setting [1] is at most 100 nM.
